Measurements reported in patent publication US9856290B2, “Glycopeptide compositions and uses thereof” (SUSSEX RESEARCH LABORATORIES INC., priority 2013, dated 2018).
Marks after values point to notes of the source that are not given here. The star is where a group is joined. Ac4‑β‑Gal = tetraacetyl-β-galactoside (peracetylated β-galactose), CC(=O)OC[C@H]1O[C@@H](*)[C@H](OC(C)=O)[C@@H](OC(C)=O)[C@H]1OC(C)=O; Ac4‑β‑Glc = per-acetylated β-glucose (tetraacetyl), CC(=O)OC[C@H]1O[C@@H](*)[C@H](OC(C)=O)[C@@H](OC(C)=O)[C@@H]1OC(C)=O; αGalNAc = CC(=O)N[C@@H]1[C@@H](O)[C@@H](O)[C@@H](CO)O[C@@H]1*; βGlcNAc = CC(=O)N[C@@H]1[C@@H](O)[C@H](O)[C@@H](CO)O[C@H]1*; βGlc = OC[C@H]1O[C@@H](*)[C@H](O)[C@@H](O)[C@@H]1O; βGal = OC[C@H]1O[C@@H](*)[C@H](O)[C@@H](O)[C@H]1O; Palmitoyl = CCCCCCCCCCCCCCCC(=O)*

Tests used:
[1] = test system: Human Dermal Fibroblasts (KMST-6); assay: ECM ELISA assay: fibronectin secretion by human dermal fibroblasts; type: cell-based; details: 5 μM; for Fibronectin secretion at 48 hours: KMST-6, 48 hours; for Fibronectin secretion at 48 hours / Fibronectin Secretion at 72 hours: % compared to control set at 100%, normalized to total protein; for Fibronectin Secretion at 72 hours / FIBRONECTIN (ECM Protein Summary Table): KMST-6, 72 hours; for FIBRONECTIN (ECM Protein Summary Table): control 100%
Method in brief: (§1)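 KMST-6 human dermal fibroblasts treated with 5 μM compound in serum-free medium with sodium ascorbate and β-aminopropionate fumarate for 48 and 72 h. Secreted fibronectin and elastin quantified by ELISA (450 nm, 4-parameter standard curve), normalized to total cellular protein and expressed as % of DMSO control.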

[2] = test system: Human Dermal Fibroblasts (KMST-6); assay: ECM ELISA assay: elastin secretion by human dermal fibroblasts; type: cell-based; details: 5 μM; for increased elastin secretion compared to control: versus DMSO control; for Elastin Secretion at 48 hours: KMST-6, 48 hours; for Elastin Secretion at 48 hours / Elastin Secretion at 72 hours: % compared to control set at 100%, normalized to total protein; for Elastin Secretion at 72 hours / ELASTIN (ECM Protein Summary Table): KMST-6, 72 hours; for ELASTIN (ECM Protein Summary Table): control 100%
Method in brief: as §1

For “Pal-KTTKS(Ac4-β-Gal)-OH (Palmitoyl-KTTKS(Ac4‑β‑Gal)-OH; SMILES CCCCCCCCCCCCCCCC(=O)N[C@@H](CCCCN)C(=O)N[C@H](C(=O)N[C@H](C(=O)N[C@@H](CCCCN)C(=O)N[C@@H](CO[C@@H]1O[C@H](COC(C)=O)[C@H](OC(C)=O)[C@H](OC(C)=O)[C@H]1OC(C)=O)C(=O)O)[C@@H](C)O)[C@@H](C)O; listed as Homo sapiens) [GP002-7]”, the “biological activity in fibronectin secretion compared to control” value ([1]; 72 hours) was “greater biological activity”, the “Fibronectin secretion at 48 hours” value [1] was 113.7% and the “Fibronectin Secretion at 72 hours” value [1] was 116.1%. For the same substance, the “FIBRONECTIN (ECM Protein Summary Table)” value [1] was 116%, the “biological activity in elastin secretion compared to control” value ([2]; 72 hours) was “greater biological activity” and the “increased elastin secretion compared to control” value ([2]; 72 hours) was 107%. For the same substance, the “Elastin Secretion at 48 hours” value [2] was 198.3%, the “Elastin Secretion at 72 hours” value [2] was 207.1* % and the “ELASTIN (ECM Protein Summary Table)” value [2] was 207* %.
In the case of “Pal-KTTKS(Ac4-β-Glc)-OH (Palmitoyl-KTTKS(Ac4‑β‑Glc)-OH; SMILES CCCCCCCCCCCCCCCC(=O)N[C@@H](CCCCN)C(=O)N[C@H](C(=O)N[C@H](C(=O)N[C@@H](CCCCN)C(=O)N[C@@H](CO[C@@H]1O[C@H](COC(C)=O)[C@@H](OC(C)=O)[C@H](OC(C)=O)[C@H]1OC(C)=O)C(=O)O)[C@@H](C)O)[C@@H](C)O; listed as Homo sapiens) [GP002-3]”, the “biological activity in fibronectin secretion compared to control” value ([1]; 72 hours) is reported as “greater biological activity”, the “increased fibronectin secretion compared to control” value ([1]; 72 hours, versus DMSO control) is reported as 35% and the “Fibronectin secretion at 48 hours” value [1] is reported as 135.5%. The “Fibronectin Secretion at 72 hours” value [1] was 134.5* %, the “FIBRONECTIN (ECM Protein Summary Table)” value [1] was 135* % and the “biological activity in elastin secretion compared to control” value ([2]; 72 hours) was “greater biological activity”. The “increased elastin secretion compared to control” value ([2]; 72 hours) was 222%, the “increased secretion of elastin compared to the reference peptide” value ([2]; 72 hours, versus Pal-KTTKS reference) was 189% and the “Elastin Secretion at 48 hours” value [2] was 460.4* %. The “Elastin Secretion at 72 hours” value [2] was 321.6* % and the “ELASTIN (ECM Protein Summary Table)” value [2] was 322*^# %.
With “Pal-KTTKS(α-GalNAc)-OH (Palmitoyl-KTTKS(αGalNAc)-OH; SMILES CCCCCCCCCCCCCCCC(=O)N[C@@H](CCCCN)C(=O)N[C@H](C(=O)N[C@H](C(=O)N[C@@H](CCCCN)C(=O)N[C@@H](CO[C@H]1O[C@H](CO)[C@H](O)[C@H](O)[C@H]1NC(C)=O)C(=O)O)[C@@H](C)O)[C@@H](C)O; listed as Homo sapiens) [GP002-2]” the “Fibronectin secretion at 48 hours” value [1] was 95.7%, the “Fibronectin Secretion at 72 hours” value [1] was 90.60% and the “Elastin Secretion at 48 hours” value [2] was 143.8%. The “Elastin Secretion at 72 hours” value [2] was 127.0%.
“Pal-KTTKS(β-Gal)-OH (Palmitoyl-KTTKS(βGal)-OH; SMILES CCCCCCCCCCCCCCCC(=O)N[C@@H](CCCCN)C(=O)N[C@H](C(=O)N[C@H](C(=O)N[C@@H](CCCCN)C(=O)N[C@@H](CO[C@@H]1O[C@H](CO)[C@H](O)[C@H](O)[C@H]1O)C(=O)O)[C@@H](C)O)[C@@H](C)O; listed as Homo sapiens) [GP002-8]” was tested, and the “Fibronectin secretion at 48 hours” value [1] was 110.0%, the “Fibronectin Secretion at 72 hours” value [1] was 121.0% and the “Elastin Secretion at 48 hours” value [2] was 103.8%. The “Elastin Secretion at 72 hours” value [2] was 177.8%.
For “Pal-KTTKS(β-Glc)-OH (Palmitoyl-KTTKS(βGlc)-OH; SMILES CCCCCCCCCCCCCCCC(=O)N[C@@H](CCCCN)C(=O)N[C@H](C(=O)N[C@H](C(=O)N[C@@H](CCCCN)C(=O)N[C@@H](CO[C@@H]1O[C@H](CO)[C@@H](O)[C@H](O)[C@H]1O)C(=O)O)[C@@H](C)O)[C@@H](C)O; listed as Homo sapiens) [GP002-4]”, the “Fibronectin secretion at 48 hours” value [1] was 121.5%, the “Fibronectin Secretion at 72 hours” value [1] was 116.0% and the “Elastin Secretion at 48 hours” value [2] was 145.0%. For the same substance, the “Elastin Secretion at 72 hours” value [2] was 142.0%.
In the case of “Pal-KTTKS(β-GlcNAc)-OH (Palmitoyl-KTTKS(βGlcNAc)-OH; SMILES CCCCCCCCCCCCCCCC(=O)N[C@@H](CCCCN)C(=O)N[C@H](C(=O)N[C@H](C(=O)N[C@@H](CCCCN)C(=O)N[C@@H](CO[C@@H]1O[C@H](CO)[C@@H](O)[C@H](O)[C@H]1NC(C)=O)C(=O)O)[C@@H](C)O)[C@@H](C)O; listed as Homo sapiens) [GP002-6]”, the “Fibronectin secretion at 48 hours” value [1] is reported as 109.7%, the “Fibronectin Secretion at 72 hours” value [1] is reported as 115.8% and the “Elastin Secretion at 48 hours” value [2] is reported as 150.7%. For the same substance, the “Elastin Secretion at 72 hours” value [2] was 111.0%.
With “Pal-N(Ac4-β-Glc)KTTKS-OH (Palmitoyl-N(Ac4‑β‑Glc)KTTKS-OH; listed as Homo sapiens) [GP003-7]” the “Fibronectin secretion at 48 hours” value [1] was 139.8%, the “Fibronectin Secretion at 72 hours” value [1] was 118.5% and the “Elastin Secretion at 48 hours” value [2] was 105.0%. The “Elastin Secretion at 72 hours” value [2] was 148.2%.
In the case of “Pal-N(β-Glc)KTTKS-OH (Palmitoyl-N(βGlc)KTTKS-OH; listed as Homo sapiens) [GP003-8]”, the “Fibronectin secretion at 48 hours” value [1] is reported as 157.2%, the “Fibronectin Secretion at 72 hours” value [1] is reported as 126.0% and the “Elastin Secretion at 48 hours” value [2] is reported as 111.3%. The “Elastin Secretion at 72 hours” value [2] was 146.5%.
